IC50 data for 24 compounds are collected here from patent US20230081426A1, “COMPOUNDS AND METHODS FOR KRAS MODULATION AND INDICATIONS THEREFOR” (Plexxikon Inc., priority 2020, published 2023).

In assay [1] the target is T1, G12V-mutant human KRAS (amino acid residues 1-188) (Homo sapiens, UniProt P01116, G12V).
T1 construct: G12V-mutant human KRAS (amino acid residues 1-188) with FLAG tag was purified from E. coli; made in house; host or cells: E. coli
As to the kind of experiment: KRAS Binding Competition Assay (AlphaScreen; biotinylated KRpep-2d analogue), G12V. Particulars: geometric mean, read-out: KRAS GMean IC50 (uM) MUTATION: G12V. A general note: In Alpha technology, singlet oxygen from a donor bead excites a nearby acceptor bead.

In assay [2] the target is T2, G12D-mutant human KRAS (amino acid residues 1-188) (Homo sapiens, UniProt P01116, G12D).
T2 construct: G12D or G12C-mutant human KRAS (amino acid residues 1-188) with FLAG tag; made in house; host or cells: E. coli
As to the kind of experiment: KRAS Binding Disruption Assay (AlphaScreen; biotinylated KRpep-2d analogue or RAF1-RBD), G12D. To be noted: KRAS G12D; geometric mean; read-out: KRAS GMean IC50 (uM) MUTATION: G12D. The method in brief:
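AlphaScreen readout: signal falls as compound displaces biotinylated KRpep-2d analogue or RAF1-RBD from mutant KRAS. Both partners at 5-20 nM, 1 h binding at 25° C, then 10 μg/mL Anti-Flag acceptor and streptavidin donor beads for 1 h. IC50 by nonlinear regression of % inhibition.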

For `CN1CCC[C@H]1COc1nc(N2[C@@H]3CC[C@H]2CN(C(=N)N)C3)c2ccc(-c3cc(O)cc4ccccc34)cc2n1` [P-0231, (1R,5S)-8-(7-(3-hydroxynaphthalen-1-yl)-2-(((S)-1-methylpyrrolidin-2-yl)methoxy)quinazolin-4-yl)-3,8-diazabicyclo[3.2.1]octane-3-carboximidamide], the IC50 in assay [1] and in assay [2] was 10 to 100 µM each time.

As to `Oc1cc(-c2ccc3c(N4[C@@H]5CC[C@H]4CNC5)nc(CCc4ccccn4)nc3c2)c2ccccc2c1` [P-0232, 4-(4-((1R,5S)-3,8-diazabicyclo[3.2.1]octan-8-yl)-2-(2-(pyridin-2-yl)ethyl)quinazolin-7-yl)naphthalen-2-ol], the values for the IC50 in assay [1] and in assay [2] were 10 to 100 µM and 0.0001 to 10 µM, respectively.

Turning to `NC(=O)CCc1nc(N2[C@@H]3CC[C@H]2CNC3)c2ccc(-c3cc(O)cc4ccccc34)cc2n1` [P-0233, 3-(4-((1R,5S)-3,8-diazabicyclo[3.2.1]octan-8-yl)-7-(3-hydroxynaphthalen-1-yl)quinazolin-2-yl)propanamide], the IC50 in assay [1] and in assay [2] was 0.0001 to 10 µM each time.

Turning to `CN1CCC[C@H]1COc1nc(N2C[C@H]3CC[C@@H](C2)N3)c2ccc(-c3cncc(Cl)c3Cl)cc2n1` [P-0234, 4-((1R,5S)-3,8-diazabicyclo[3.2.1]octan-3-yl)-7-(4,5-dichloropyridin-3-yl)-2-(((S)-1-methylpyrrolidin-2-yl)methoxy)quinazoline], the IC50 (usually the concentration that inhibits the measured activity by half) lay within 100 to 1000 µM in assay [1] and 10 to 100 µM in assay [2].

With `CN1CCC[C@H]1COc1nc(N2CC3CCC(C2)N3)c2ccc(-c3cc(Cl)cn4ccnc34)cc2n1` [P-0235], the IC50 in assay [1] and in assay [2] was 10 to 100 µM throughout.

As for `CN1CCC[C@H]1COc1nc(N2C[C@H]3CC[C@@H](C2)N3)c2ccc(-c3c(Cl)ccc4[nH]ccc34)cc2n1` [P-0236, 4-((1R,5S)-3,8-diazabicyclo[3.2.1]octan-3-yl)-7-(5-chloro-1H-indol-4-yl)-2-(((S)-1-methylpyrrolidin-2-yl)methoxy)quinazoline], the IC50 in assay [1] and in assay [2] was 10 to 100 µM throughout.

Turning to `CN1CCc2ccc(Oc3nc(N4[C@@H]5CC[C@H]4CNC5)c4ccc(-c5cc(O)cc6ccccc56)cc4n3)cc2C1` [P-0237, 4-(4-((1R,5S)-3,8-diazabicyclo[3.2.1]octan-8-yl)-2-((2-methyl-1,2,3,4-tetrahydroisoquinolin-7-yl)oxy)quinazolin-7-yl)naphthalen-2-ol], the IC50 in assay [1] and in assay [2] was 10 to 100 µM each time.

Consider `CN1CCc2cc(Oc3nc(N4[C@@H]5CC[C@H]4CNC5)c4ccc(-c5cc(O)cc6ccccc56)cc4n3)ccc2C1` [P-0238, 4-(4-((1R,5S)-3,8-diazabicyclo[3.2.1]octan-8-yl)-2-((2-methyl-1,2,3,4-tetrahydroisoquinolin-6-yl)oxy)quinazolin-7-yl)naphthalen-2-ol], for which the IC50 in assay [1] and in assay [2] was 0.0001 to 10 µM throughout.

As to `CN1CCCC(Oc2nc(N3[C@@H]4CC[C@H]3CNC4)c3ccc(-c4cc(O)cc5ccccc45)cc3n2)C1` (stereo partly drawn) [P-0239, 4-(4-((1R,5S)-3,8-diazabicyclo[3.2.1]octan-8-yl)-2-((1-methylpiperidin-3-yl)oxy)quinazolin-7-yl)naphthalen-2-ol], the half-maximal inhibitory concentration (IC50) in assay [1] and in assay [2] was 0.0001 to 10 µM in each case.

With `Oc1cc(-c2ccc3c(N4[C@@H]5CC[C@H]4CNC5)nc(Cc4cccnc4)nc3c2)c2ccccc2c1` [P-0240, 4-(4-((1R,5S)-3,8-diazabicyclo[3.2.1]octan-8-yl)-2-(pyridin-3-ylmethyl)quinazolin-7-yl)naphthalen-2-ol], the IC50 in assay [1] and in assay [2] was 0.0001 to 10 µM throughout.

Turning to `Oc1cc(-c2ccc3c(N4[C@@H]5CC[C@H]4CNC5)nc(CCc4cccnc4)nc3c2)c2ccccc2c1` [P-0241, 4-(4-((1R,5S)-3,8-diazabicyclo[3.2.1]octan-8-yl)-2-(2-(pyridin-3-yl)ethyl)quinazolin-7-yl)naphthalen-2-ol], the IC50 in assay [1] and in assay [2] was 0.0001 to 10 µM each time.

As for `CN(C)c1ccc(CCc2nc(N3C[C@H]4CC[C@@H](C3)N4)c3ccc(-c4cc(O)cc5ccccc45)cc3n2)cc1` [P-0242, 4-(4-((1R,5S)-3,8-diazabicyclo[3.2.1]octan-3-yl)-2-(4-(dimethylamino)phenethyl)quinazo-lin-7-yl)naphthalen-2-ol], the half-maximal inhibitory concentration (IC50) in assay [1] and in assay [2] was 0.0001 to 10 µM throughout.

With `Nc1ccc(CCc2nc(N3[C@@H]4CC[C@H]3CNC4)c3ccc(-c4cc(O)cc5ccccc45)cc3n2)cc1` [P-0243, 4-(2-(4-aminophenethyl)-4-((1R,5S)-3,8-diazabicyclo[3.2.1]octan-8-yl)quinazolin-7-yl)naphthalen-2-ol], the IC50 in assay [1] and in assay [2] was 0.0001 to 10 µM each time.

For the compound `CN(C)c1ccc(/C=C/c2nc(N3[C@@H]4CC[C@H]3CNC4)c3ccc(-c4cc(O)cc5ccccc45)cc3n2)cc1` [P-0244, 4-(4-((1R,5S)-3,8-diazabicyclo[3.2.1]octan-8-yl)-2-((E)-4-(dimethylamino)styryl)quinazolin-7-yl)naphthalen-2-ol], the IC50 in assay [1] and in assay [2] was 10 to 100 µM throughout.

Turning to `C[C@@H](Oc1nc(N2C[C@H]3CC[C@@H](C2)N3)c2ccc(-c3cc(O)cc4ccccc34)cc2n1)[C@@H]1CCCN1C` [P-0245, 4-(4-((1R,5S)-3,8-diazabicyclo[3.2.1]octan-3-yl)-2-((R)-1-((S)-1-methylpyrrolidin-2-yl)ethoxy)quinazolin-7-yl)naphthalen-2-ol], the IC50 in assay [1] and in assay [2] was 0.0001 to 10 µM throughout.

As for `CN1CC[C@@H](NC(=O)N2[C@H]3CC[C@@H]2CN(c2nc(OC[C@@H]4CCCN4C)nc4c(F)c(-c5cc(O)cc6ccccc56)ccc24)CC3)C1` [P-0246, (1R,6S)-3-(8-fluoro-7-(3-hydroxynaphthalen-1-yl)-2-(((S)-1-methylpyrrolidin-2-yl)methoxy)quinazolin-4-yl)-N-((R)-1-methylpyrrolidin-3-yl)-3,9-diazabicyclo[4.2.1]nonane-9-carboxamide], the IC50 was 10 to 100 µM in assay [1] and 0.0001 to 10 µM in assay [2].

Consider `CN1CCN(CCCC(=O)N2C3CCC2CN(c2nc(OC[C@@H]4CCCN4C)nc4c(F)c(-c5cc(O)cc6ccccc56)ccc24)CC3)CC1` (stereo partly drawn) [P-0247, 1-(3-(8-fluoro-7-(3-hydroxynaphthalen-1-yl)-2-(((S)-1-methylpyrrolidin-2-yl)methoxy)quinazolin-4-yl)-3,9-diazabicyclo[4.2.1]nonan-9-yl)-4-(4-methylpiperazin-1-yl)butan-1-one], for which the IC50 in assay [1] and in assay [2] was 10 to 100 µM throughout.

As to `CN1CCC[C@H]1COc1nc(N2CC[C@@H]3CC[C@H](C2)N3C(=O)NC2CCOC2)c2ccc(-c3cc(O)cc4ccccc34)c(F)c2n1` (stereo partly drawn) [P-0248, (1R,6 S)-3-(8-fluoro-7-(3-hydroxynaphthalen-1-yl)-2-(((S)-1-methylpyrrolidin-2-yl)methoxy)quinazolin-4-yl)-N-(tetrahydrofuran-3-yl)-3,9-diazabicyclo[4.2.1]nonane-9-carboxamide], the IC50 in assay [1] is 0.0001 to 10 µM; in assay [2], 10 to 100 µM.

Consider `CN1CC[C@@H](NC(=O)N2C3COCC2CN(c2nc(OC[C@@H]4CCCN4C)nc4c(F)c(-c5cc(O)cc6ccccc56)ccc24)C3)C1` [P-0250, 7-(8-fluoro-7-(3-hydroxynaphthalen-1-yl)-2-(((S)-1-methylpyrrolidin-2-yl)methoxy)quinazolin-4-yl)-N-((R)-1-methylpyrrolidin-3-yl)-3-oxa-7,9-diazabicyclo[3.3.1]nonane-9-carboxamide], for which the IC50 in assay [1] and in assay [2] was 0.0001 to 10 µM throughout.

With `CN1CCN(CCCC(=O)N2C3COCC2CN(c2nc(OC[C@@H]4CCCN4C)nc4c(F)c(-c5cc(O)cc6ccccc56)ccc24)C3)CC1` [P-0252, 1-(7-(8-fluoro-7-(3-hydroxynaphthalen-1-yl)-2-(((S)-1-methylpyrrolidin-2-yl)methoxy)quinazolin-4-yl)-3-oxa-7,9-diazabicyclo[3.3.1]nonan-9-yl)-4-(4-methylpiperazin-1-yl)butan-1-one], the IC50 in assay [1] and in assay [2] was 10 to 100 µM each time.

On to `CN1CCC[C@H]1COc1nc(N2C[C@H]3CC[C@@H](C2)N3)c2ccc(-c3c[nH]c4ccc(Cl)cc34)cc2n1` [P-0253, 4-((1R,5S)-3,8-diazabicyclo[3.2.1]octan-3-yl)-7-(5-chloro-1H-indol-3-yl)-2-(((S)-1-methylpyrrolidin-2-yl)methoxy)quinazoline], for which the IC50 fell in the range of 100 to 1000 µM in assay [1] and 10 to 100 µM in assay [2].

As for `CN1CCC[C@H]1COc1nc(N2C[C@H]3CC[C@@H](C2)N3)c2ccc(-c3c[nH]c4ccccc34)cc2n1` [P-0254, 4-((1R,5S)-3,8-diazabicyclo[3.2.1]octan-3-yl)-7-(1H-indol-3-yl)-2-(((S)-1-methylpyrrolidin-2-yl)methoxy)quinazoline], the IC50 in assay [1] and in assay [2] was 10 to 100 µM each time.

Consider `CN1CCC[C@H]1COc1nc(N2C[C@H]3CC[C@@H](C2)N3)c2ccc(-c3c[nH]c4cccc(Cl)c34)cc2n1` [P-0255, 4-((1R,5S)-3,8-diazabicyclo[3.2.1]octan-3-yl)-7-(4-chloro-1H-indol-3-yl)-2-(((S)-1-methylpyrrolidin-2-yl)methoxy)quinazoline], for which the IC50 in assay [1] and in assay [2] was 10 to 100 µM in each case.

As to `CN1CCC[C@H]1COc1nc(N2[C@@H]3CC[C@H]2CNC3)c2ccc(-c3cccc4ccccc34)cc2n1` [P-0257, 4-((1R,5S)-3,8-diazabicyclo[3.2.1]octan-8-yl)-2-(((S)-1-methylpyrrolidin-2-yl)methoxy)-7-(naphthalen-1-yl)quinazoline], the IC50 in assay [1] and in assay [2] was 10 to 100 µM each time.
